Data from ChEMBL document CHEMBL3352194, “The discovery of benzenesulfonamide-based potent and selective inhibitors of voltage-gated sodium channel Na(v)1.7” (Bioorg Med Chem Lett, 2014).

What follows are compounds tested against CYP2D6 (Homo sapiens, UniProt P10635) (assay: Inhibition of CYP2D6 (unknown origin) using bufuralol substrate at 10 uM). Conditions: probe bufuralol.
Type: ADME

CYP2D6, sequence (P10635 whole entry): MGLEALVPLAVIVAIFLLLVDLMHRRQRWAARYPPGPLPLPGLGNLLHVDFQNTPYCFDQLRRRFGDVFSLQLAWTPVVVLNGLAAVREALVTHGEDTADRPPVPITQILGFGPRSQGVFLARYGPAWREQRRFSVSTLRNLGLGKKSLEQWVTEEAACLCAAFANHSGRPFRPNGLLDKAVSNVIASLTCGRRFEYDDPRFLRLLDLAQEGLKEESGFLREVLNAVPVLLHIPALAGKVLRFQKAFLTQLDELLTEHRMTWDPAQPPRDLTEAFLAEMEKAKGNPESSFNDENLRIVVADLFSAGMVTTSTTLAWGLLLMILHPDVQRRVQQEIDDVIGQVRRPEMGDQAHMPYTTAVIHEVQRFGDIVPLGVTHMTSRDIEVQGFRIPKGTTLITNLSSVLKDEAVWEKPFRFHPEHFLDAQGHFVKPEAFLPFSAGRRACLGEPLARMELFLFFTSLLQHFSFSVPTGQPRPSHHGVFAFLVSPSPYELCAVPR

| inhibition at 10 µM | Structure (SMILES) |
| --- | --- |
| 61% | O=S(=O)(Nc1ncns1)c1cc(F)c(OC[C@@H]2CN(CC(F)F)CC[C@H]2c2ccc(Cl)cc2)cc1F (relative stereo) |
| 61% | O=S(=O)(Nc1ncns1)c1cc(F)c(OC[C@@H]2CCNC[C@H]2c2ccc(F)cc2)cc1F (relative stereo) |
| 48% | Cc1cnc(NS(=O)(=O)c2cc(F)c(OC[C@@H]3CNCC[C@H]3c3ccc(Cl)cc3)cc2F)s1 (relative stereo) |
| 55% | Cc1nsc(NS(=O)(=O)c2cc(F)c(OC[C@@H]3CNCC[C@H]3c3ccc(Cl)cc3)cc2F)n1 (relative stereo) |
| 82% | O=S(=O)(Nc1ncns1)c1cc(F)c(OC[C@@H]2CNCC[C@H]2c2ccccc2)cc1F (relative stereo) |
| 66% | O=S(=O)(Nc1ncns1)c1cc(F)c(OC[C@@H]2CCCC[C@H]2c2ccc(Cl)cc2)cc1F (relative stereo) |
| 81% | Cc1ccc([C@H]2CCNC[C@@H]2COc2cc(F)c(S(=O)(=O)Nc3ncns3)cc2F)cc1 (relative stereo) |
| 54% | O=S(=O)(Nc1nncs1)c1cc(F)c(OC[C@@H]2CNCC[C@H]2c2ccc(Cl)cc2)cc1F (relative stereo) |

Species: Homo sapiens
Experiment: Selectivity index, ratio of IC50 for human Nav1.5 to IC50 for human Nav1.7
Conditions: not given

| Structure (SMILES) | Ratio IC50 |
| --- | --- |
| O=S(=O)(Nc1ncns1)c1cc(F)c(OC[C@@H]2CNCC[C@H]2c2ccccc2)cc1F (relative stereo) | > 1000 |

The compounds below were run against Sodium channel protein type 5 subunit alpha (Homo sapiens, UniProt Q14524) (assay: Inhibition of human Nav1.5 expressed in HEK cells assessed as reduction in sodium current at -60 mV holding potential by PatchXpress platform based whole cell patch clamp electrophysiological assay). Conditions: not given.
Design: species or system HEK293

Sodium channel protein type 5 subunit alpha, sequence (Q14524 whole entry): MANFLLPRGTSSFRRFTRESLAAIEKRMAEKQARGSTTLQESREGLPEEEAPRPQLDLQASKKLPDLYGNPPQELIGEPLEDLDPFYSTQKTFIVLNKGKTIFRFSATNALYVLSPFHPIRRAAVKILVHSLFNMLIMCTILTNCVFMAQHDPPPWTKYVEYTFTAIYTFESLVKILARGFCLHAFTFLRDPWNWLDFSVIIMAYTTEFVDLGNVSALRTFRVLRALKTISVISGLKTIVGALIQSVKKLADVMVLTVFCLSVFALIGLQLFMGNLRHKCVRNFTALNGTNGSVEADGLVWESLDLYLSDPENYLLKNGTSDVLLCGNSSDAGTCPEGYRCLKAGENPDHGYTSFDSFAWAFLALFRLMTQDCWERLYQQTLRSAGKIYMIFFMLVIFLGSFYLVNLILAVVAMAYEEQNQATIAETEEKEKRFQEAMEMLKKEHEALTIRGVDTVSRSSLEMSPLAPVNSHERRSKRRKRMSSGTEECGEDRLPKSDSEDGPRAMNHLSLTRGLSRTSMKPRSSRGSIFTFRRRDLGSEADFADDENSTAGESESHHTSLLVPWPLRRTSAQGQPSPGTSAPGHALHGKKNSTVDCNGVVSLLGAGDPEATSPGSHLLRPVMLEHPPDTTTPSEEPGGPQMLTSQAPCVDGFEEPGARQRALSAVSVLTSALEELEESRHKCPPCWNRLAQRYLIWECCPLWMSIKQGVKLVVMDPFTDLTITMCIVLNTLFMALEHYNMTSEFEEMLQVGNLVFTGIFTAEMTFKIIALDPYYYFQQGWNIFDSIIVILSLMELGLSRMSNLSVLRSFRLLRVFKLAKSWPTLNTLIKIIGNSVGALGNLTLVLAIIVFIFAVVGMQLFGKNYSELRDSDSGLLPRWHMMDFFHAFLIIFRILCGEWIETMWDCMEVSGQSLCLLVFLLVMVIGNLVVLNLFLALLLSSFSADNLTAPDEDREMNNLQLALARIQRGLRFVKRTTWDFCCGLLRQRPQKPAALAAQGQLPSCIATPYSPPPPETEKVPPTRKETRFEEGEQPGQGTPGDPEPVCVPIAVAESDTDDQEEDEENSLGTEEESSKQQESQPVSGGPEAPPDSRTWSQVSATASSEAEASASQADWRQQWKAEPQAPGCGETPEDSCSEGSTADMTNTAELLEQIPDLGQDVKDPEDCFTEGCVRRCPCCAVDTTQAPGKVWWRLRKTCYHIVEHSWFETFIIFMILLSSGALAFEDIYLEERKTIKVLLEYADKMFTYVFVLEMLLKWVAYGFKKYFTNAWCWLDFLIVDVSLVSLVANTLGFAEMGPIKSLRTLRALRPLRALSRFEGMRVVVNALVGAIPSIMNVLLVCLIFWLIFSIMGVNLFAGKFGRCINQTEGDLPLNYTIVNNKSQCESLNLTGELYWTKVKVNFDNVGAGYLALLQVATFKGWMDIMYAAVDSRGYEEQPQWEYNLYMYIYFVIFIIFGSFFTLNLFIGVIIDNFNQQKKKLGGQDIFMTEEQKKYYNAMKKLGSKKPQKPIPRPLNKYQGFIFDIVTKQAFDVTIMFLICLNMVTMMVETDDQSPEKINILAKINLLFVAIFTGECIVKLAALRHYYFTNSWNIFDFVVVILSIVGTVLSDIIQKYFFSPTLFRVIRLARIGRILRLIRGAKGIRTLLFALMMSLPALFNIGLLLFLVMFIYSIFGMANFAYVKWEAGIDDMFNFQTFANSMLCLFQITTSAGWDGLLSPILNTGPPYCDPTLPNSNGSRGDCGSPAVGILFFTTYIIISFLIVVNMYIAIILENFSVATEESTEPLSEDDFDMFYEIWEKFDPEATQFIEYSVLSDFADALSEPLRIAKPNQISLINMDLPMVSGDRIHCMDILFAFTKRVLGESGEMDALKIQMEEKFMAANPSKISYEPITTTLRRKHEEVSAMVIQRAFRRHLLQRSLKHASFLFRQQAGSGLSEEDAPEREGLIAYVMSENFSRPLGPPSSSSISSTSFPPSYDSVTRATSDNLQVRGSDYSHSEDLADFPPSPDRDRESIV

| Structure (SMILES) | IC50 |
| --- | --- |
| O=S(=O)(Nc1ncns1)c1cc(F)c(OC[C@@H]2CCNC[C@H]2c2ccc(F)cc2)cc1F (relative stereo) | 5900 nM |
| O=S(=O)(Nc1ncns1)c1cc(F)c(OC[C@@H]2CNCC[C@H]2c2ccccc2)cc1F (relative stereo) | > 10000 nM |
| O=S(=O)(Nc1ncns1)c1cc(F)c(OC[C@@H]2CCCC[C@H]2c2ccc(Cl)cc2)cc1F (relative stereo) | 24700 nM |
| Cc1ccc([C@H]2CCNC[C@@H]2COc2cc(F)c(S(=O)(=O)Nc3ncns3)cc2F)cc1 (relative stereo) | > 10000 nM |
| O=S(=O)(Nc1nncs1)c1cc(F)c(OC[C@@H]2CNCC[C@H]2c2ccc(Cl)cc2)cc1F (relative stereo) | > 10000 nM |

The compounds below were run against Sodium channel protein type 9 subunit alpha (Homo sapiens, UniProt Q15858) (assay: Inhibition of human Nav1.7 expressed in HEK cells assessed as reduction in sodium current at -60 mV holding potential by PatchXpress platform based whole cell patch clamp electrophysiological assay). Conditions: not given.
Design: species or system HEK293

Sodium channel protein type 9 subunit alpha, sequence (Q15858 whole entry): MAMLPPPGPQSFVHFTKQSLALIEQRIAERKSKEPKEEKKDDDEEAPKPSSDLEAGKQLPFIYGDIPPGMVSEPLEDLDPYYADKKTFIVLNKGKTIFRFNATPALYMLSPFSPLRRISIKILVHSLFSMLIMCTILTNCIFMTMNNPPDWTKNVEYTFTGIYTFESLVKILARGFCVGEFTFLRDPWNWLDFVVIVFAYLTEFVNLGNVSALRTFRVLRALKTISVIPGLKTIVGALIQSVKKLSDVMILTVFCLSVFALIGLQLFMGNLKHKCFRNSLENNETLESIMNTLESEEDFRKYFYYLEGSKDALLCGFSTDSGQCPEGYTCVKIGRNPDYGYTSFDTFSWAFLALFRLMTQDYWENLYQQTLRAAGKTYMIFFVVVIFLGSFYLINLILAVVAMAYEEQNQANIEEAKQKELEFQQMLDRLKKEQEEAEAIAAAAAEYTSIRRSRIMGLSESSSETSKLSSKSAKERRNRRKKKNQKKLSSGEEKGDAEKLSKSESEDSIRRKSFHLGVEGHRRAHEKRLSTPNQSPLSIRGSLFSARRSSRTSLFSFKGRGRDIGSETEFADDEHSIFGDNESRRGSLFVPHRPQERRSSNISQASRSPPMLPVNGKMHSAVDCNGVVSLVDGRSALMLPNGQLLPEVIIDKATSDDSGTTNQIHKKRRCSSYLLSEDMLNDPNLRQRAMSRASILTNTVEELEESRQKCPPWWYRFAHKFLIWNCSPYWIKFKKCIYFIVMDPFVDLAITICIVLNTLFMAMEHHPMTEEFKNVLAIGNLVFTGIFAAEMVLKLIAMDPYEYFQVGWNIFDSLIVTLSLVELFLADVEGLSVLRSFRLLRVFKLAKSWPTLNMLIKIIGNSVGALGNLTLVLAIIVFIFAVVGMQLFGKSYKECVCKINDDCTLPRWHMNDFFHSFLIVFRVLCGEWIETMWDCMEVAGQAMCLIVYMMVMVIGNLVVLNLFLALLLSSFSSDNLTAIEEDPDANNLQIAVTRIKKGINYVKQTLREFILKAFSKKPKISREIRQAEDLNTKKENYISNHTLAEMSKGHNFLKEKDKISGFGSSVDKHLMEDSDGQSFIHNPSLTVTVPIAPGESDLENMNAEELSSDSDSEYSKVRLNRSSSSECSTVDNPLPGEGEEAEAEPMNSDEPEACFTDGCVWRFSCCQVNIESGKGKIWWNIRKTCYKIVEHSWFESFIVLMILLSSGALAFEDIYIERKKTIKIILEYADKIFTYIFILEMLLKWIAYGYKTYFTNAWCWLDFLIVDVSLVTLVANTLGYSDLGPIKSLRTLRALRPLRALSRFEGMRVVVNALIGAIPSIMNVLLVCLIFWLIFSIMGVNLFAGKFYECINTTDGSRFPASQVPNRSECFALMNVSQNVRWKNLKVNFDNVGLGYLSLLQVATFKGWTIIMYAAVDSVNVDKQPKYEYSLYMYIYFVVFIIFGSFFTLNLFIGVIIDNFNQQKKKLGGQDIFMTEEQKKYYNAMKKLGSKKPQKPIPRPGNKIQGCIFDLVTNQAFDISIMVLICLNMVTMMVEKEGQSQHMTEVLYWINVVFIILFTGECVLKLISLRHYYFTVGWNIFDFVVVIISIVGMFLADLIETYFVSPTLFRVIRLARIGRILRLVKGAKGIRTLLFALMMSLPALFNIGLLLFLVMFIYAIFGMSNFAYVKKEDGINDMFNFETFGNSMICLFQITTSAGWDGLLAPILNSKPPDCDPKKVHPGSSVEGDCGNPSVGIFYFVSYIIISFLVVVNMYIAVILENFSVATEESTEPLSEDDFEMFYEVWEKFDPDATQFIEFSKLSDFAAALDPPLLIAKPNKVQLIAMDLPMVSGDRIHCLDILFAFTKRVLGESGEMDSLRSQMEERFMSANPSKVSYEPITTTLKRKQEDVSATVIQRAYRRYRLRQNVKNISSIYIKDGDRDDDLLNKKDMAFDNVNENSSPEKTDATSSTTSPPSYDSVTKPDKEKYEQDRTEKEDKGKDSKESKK

| IC50 | Structure (SMILES) |
| --- | --- |
| 38 nM | O=S(=O)(Nc1ncns1)c1cc(F)c(OC[C@@H]2CN(CC(F)F)CC[C@H]2c2ccc(Cl)cc2)cc1F (relative stereo) |
| 32 nM | O=S(=O)(Nc1ncns1)c1cc(F)c(OC[C@@H]2CCNC[C@H]2c2ccc(F)cc2)cc1F (relative stereo) |
| 194 nM | Cc1nsc(NS(=O)(=O)c2cc(F)c(OC[C@@H]3CNCC[C@H]3c3ccc(Cl)cc3)cc2F)n1 (relative stereo) |
| 7.9 nM | O=S(=O)(Nc1ncns1)c1cc(F)c(OC[C@@H]2CNCC[C@H]2c2ccccc2)cc1F (relative stereo) |
| 280 nM | O=S(=O)(Nc1ncns1)c1cc(F)c(OC[C@@H]2CCCC[C@H]2c2ccc(Cl)cc2)cc1F (relative stereo) |
| 13 nM | Cc1ccc([C@H]2CCNC[C@@H]2COc2cc(F)c(S(=O)(=O)Nc3ncns3)cc2F)cc1 (relative stereo) |
| 84 nM | O=S(=O)(Nc1nncs1)c1cc(F)c(OC[C@@H]2CNCC[C@H]2c2ccc(Cl)cc2)cc1F (relative stereo) |

These compounds were tested against CYP3A4 (Homo sapiens, UniProt P08684) (assay: Inhibition of CYP3A4 (unknown origin) using midazolam substrate at 10 uM). Conditions: probe midazolam.
Type: ADME

CYP3A4, sequence (P08684 whole entry): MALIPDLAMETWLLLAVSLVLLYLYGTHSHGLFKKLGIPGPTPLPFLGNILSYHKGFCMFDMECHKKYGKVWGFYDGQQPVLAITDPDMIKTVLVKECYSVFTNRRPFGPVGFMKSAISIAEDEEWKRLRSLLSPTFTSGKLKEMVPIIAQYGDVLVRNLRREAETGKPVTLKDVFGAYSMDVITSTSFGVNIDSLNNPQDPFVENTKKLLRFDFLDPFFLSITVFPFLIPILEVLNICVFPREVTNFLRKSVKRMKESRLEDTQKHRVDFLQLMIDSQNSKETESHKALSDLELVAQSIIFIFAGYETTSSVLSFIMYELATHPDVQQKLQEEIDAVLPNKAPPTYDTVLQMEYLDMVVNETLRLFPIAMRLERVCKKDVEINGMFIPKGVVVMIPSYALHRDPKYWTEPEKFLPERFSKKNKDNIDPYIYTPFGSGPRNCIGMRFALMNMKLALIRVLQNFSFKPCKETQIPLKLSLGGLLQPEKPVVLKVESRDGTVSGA

| inhibition at 10 µM | Structure (SMILES) |
| --- | --- |
| 98% | O=S(=O)(Nc1ncns1)c1cc(F)c(OC[C@@H]2CN(CC(F)F)CC[C@H]2c2ccc(Cl)cc2)cc1F (relative stereo) |
| 89% | O=S(=O)(Nc1ncns1)c1cc(F)c(OC[C@@H]2CCNC[C@H]2c2ccc(F)cc2)cc1F (relative stereo) |
| 22% | Cc1cnc(NS(=O)(=O)c2cc(F)c(OC[C@@H]3CNCC[C@H]3c3ccc(Cl)cc3)cc2F)s1 (relative stereo) |
| 61% | Cc1nsc(NS(=O)(=O)c2cc(F)c(OC[C@@H]3CNCC[C@H]3c3ccc(Cl)cc3)cc2F)n1 (relative stereo) |
| 95% | O=S(=O)(Nc1ncns1)c1cc(F)c(OC[C@@H]2CNCC[C@H]2c2ccccc2)cc1F (relative stereo) |
| 99% | O=S(=O)(Nc1ncns1)c1cc(F)c(OC[C@@H]2CCCC[C@H]2c2ccc(Cl)cc2)cc1F (relative stereo) |
| 95% | Cc1ccc([C@H]2CCNC[C@@H]2COc2cc(F)c(S(=O)(=O)Nc3ncns3)cc2F)cc1 (relative stereo) |
| 30% | O=S(=O)(Nc1nncs1)c1cc(F)c(OC[C@@H]2CNCC[C@H]2c2ccc(Cl)cc2)cc1F (relative stereo) |

Each compound was assayed against CYP2C19 (Homo sapiens, UniProt P33261) (assay: Inhibition of CYP2C19 (unknown origin) using omeprazole substrate at 10 uM). Conditions: probe omeprazole.
Type: ADME

| inhibition at 10 µM | Structure (SMILES) |
| --- | --- |
| 88% | O=S(=O)(Nc1ncns1)c1cc(F)c(OC[C@@H]2CN(CC(F)F)CC[C@H]2c2ccc(Cl)cc2)cc1F (relative stereo) |
| 69% | O=S(=O)(Nc1ncns1)c1cc(F)c(OC[C@@H]2CCNC[C@H]2c2ccc(F)cc2)cc1F (relative stereo) |
| 42% | Cc1cnc(NS(=O)(=O)c2cc(F)c(OC[C@@H]3CNCC[C@H]3c3ccc(Cl)cc3)cc2F)s1 (relative stereo) |
| 73% | Cc1nsc(NS(=O)(=O)c2cc(F)c(OC[C@@H]3CNCC[C@H]3c3ccc(Cl)cc3)cc2F)n1 (relative stereo) |
| 81% | O=S(=O)(Nc1ncns1)c1cc(F)c(OC[C@@H]2CNCC[C@H]2c2ccccc2)cc1F (relative stereo) |
| 95% | O=S(=O)(Nc1ncns1)c1cc(F)c(OC[C@@H]2CCCC[C@H]2c2ccc(Cl)cc2)cc1F (relative stereo) |
| 59% | Cc1ccc([C@H]2CCNC[C@@H]2COc2cc(F)c(S(=O)(=O)Nc3ncns3)cc2F)cc1 (relative stereo) |
| 35% | O=S(=O)(Nc1nncs1)c1cc(F)c(OC[C@@H]2CNCC[C@H]2c2ccc(Cl)cc2)cc1F (relative stereo) |

Each compound was assayed against CYP2C9 (Homo sapiens, UniProt P11712) (assay: Inhibition of CYP2C9 (unknown origin) using diclofenac substrate at 10 uM). Conditions: probe diclofenac.
Type: ADME

| inhibition at 10 µM | Structure (SMILES) |
| --- | --- |
| 100% | O=S(=O)(Nc1ncns1)c1cc(F)c(OC[C@@H]2CN(CC(F)F)CC[C@H]2c2ccc(Cl)cc2)cc1F (relative stereo) |
| 97% | O=S(=O)(Nc1ncns1)c1cc(F)c(OC[C@@H]2CCNC[C@H]2c2ccc(F)cc2)cc1F (relative stereo) |
| 99% | Cc1cnc(NS(=O)(=O)c2cc(F)c(OC[C@@H]3CNCC[C@H]3c3ccc(Cl)cc3)cc2F)s1 (relative stereo) |
| 100% | Cc1nsc(NS(=O)(=O)c2cc(F)c(OC[C@@H]3CNCC[C@H]3c3ccc(Cl)cc3)cc2F)n1 (relative stereo) |
| 81% | O=S(=O)(Nc1ncns1)c1cc(F)c(OC[C@@H]2CNCC[C@H]2c2ccccc2)cc1F (relative stereo) |
| 100% | O=S(=O)(Nc1ncns1)c1cc(F)c(OC[C@@H]2CCCC[C@H]2c2ccc(Cl)cc2)cc1F (relative stereo) |
| 100% | Cc1ccc([C@H]2CCNC[C@@H]2COc2cc(F)c(S(=O)(=O)Nc3ncns3)cc2F)cc1 (relative stereo) |
| 99% | O=S(=O)(Nc1nncs1)c1cc(F)c(OC[C@@H]2CNCC[C@H]2c2ccc(Cl)cc2)cc1F (relative stereo) |
